According to patent publication US6716574B2, “Osp-C derived peptide fragments” (Dako A/S, priority 1996, dated 2004):
Square brackets hold non-standard residues; d marks the D form. Thz = O=C(O)[C@@H]1CSCN1

Columns and labels:
[1] = tested on: polyclonal anti-OspC antibodies (IgM) in sera from LB patients; assay: Inhibition of binding of anti-OspC antibodies in patient sera to rOspC-coated ELISA plates; design: species or system human; conditions: for number of sera in which binding to rOspCfl was inhibited: of 5 antisera
Description: Therefore, a set of experiments have been carried out where the ability have been tested of a number of analogues of the C-terminus of SEQ ID NO: 3 to inhibit the immune reactivity between rOspCfl and selected antisera in an ELISA. More specifically, the ability of the various analogues to inhibit the binding of polyclonal anti-OspC antibodies in solution was examined in sera from LB patients to rOspC-coated ELISA plates.
The immunoreactivity to OspC was specified by using six randomly selected NB sera with an OD>1.5 in the IgM rOspC ELISA. The respective serum dilutions were determined, based on a serum dilution curve obtained in the IgM rOspC ELISA, for each of the six sera. The highest dilution, which still achieved the maximal OD value was used. 5 sera were diluted 1:200, and one serum 1:1000. The sera were diluted in the buffer used for the IgM rOspC ELISAs.
The affinity of the OspC derivatives was measured by incubation of each of the six sera with the respective OspC derivatives at 10 different dilutions (covering a two-fold range) overnight at 4° C. The rOspC ELISA was then performed as described previously, in order to determine the effect of the IgM binding to OspC.

[2] = tested on: IgM antibodies to OspC in sera from patients; assay: Indirect ELISA for IgM antibodies to full-length and truncated recombinant OspC (rOspC ELISA); assay type: binding, human; conditions: for immunoassay results compared with rOspCfl from B. garinii: sera of Example 2
Method: Indirect ELISA for IgM Antibodies to Full-length and Truncated Recombinant OspC (rOspC ELISA)
Flat-bottom microdilution plates (Maxisorb; Nunc, Roskilde, Denmark) were coated with 100 μl of rOspC diluted in 0.05 M bicarbonate pH 9.6 for 1 hour at 20° C. on a rocker platform and thereafter overnight at 4° C. The optimum coating concentration was defined as the antigen dilution resulting in the highest ratio of the optical density (OD) between a positive and a negative control serum (P/N ratio). The plates were washed four times à one minute with PBS containing 0.5 M NaCL, and 0.1% (vol/vol) Tween 20 (pH 7.2) and unspecific protein binding was blocked with 100 μl 3% (wt/vol) milk powder in PBS for 1 hour. The plates were washed four times à one minute with PBS containing 0.5 M NaCL, and 0.1% (vol/vol) Tween 20 (pH 7.2). 100 μl of serum diluted 1:200 in PBS containing 0.1% (vol/vol) Tween 20, 0.02% NaN3 and 1% (wt/vol) milk powder was added to the wells and incubated for 2 h at 20° C. The plates were washed four times à one minute with PBS containing 0.5 M NaCL, and 0.1% (vol/vol) Tween 20 (pH 7.2) and 100 μl peroxidase conjugated rabbit anti-human immunoglobulin M (IgM) (Dakopats, Copenhagen, Denmark, code P-215) diluted 1:1000 in PBS pH 7.4 with 0.05% (vol/vol) Tween 20 and 1% (wt/vol) milk powder. After the incubation for 1 h at 20° C. the plates were washed four times à one minute with PBS containing 0.5 M NaCL, and 0.1% (vol/vol) Tween 20 (pH 7.2) and 200 μl of the substrate o-phenylenediamine (0.41 mg/ml; Sigma) in citrate buffer (pH 5) with 0.04% (vol/vol) H2O2) was added to each well. After 15 minutes protected from light, the enzymatic reaction was stopped by the addition of 50 μl of 3M H2SO4. The optical density (OD) at 492 nm was read spectrophotometrically (Immuno Reader, Easy reader EAR 400 AC—SLT Labinstruments, AUSTRIA). Samples were tested in duplicate and retested, if the two OD values differed more than 10% from the mean. To eliminate plate-to-plate and day-to-day variations, a reference serum pool based on seven western blot positive sera were included on every plate for construction of a standard dilution curve with a two fold dilution ranging from 1:200 to 1:6400. The OD value of every sample was adjusted to this standard curve. Positive and negative control sera were included on every plate. The positive control sera were diluted 1:200, 1:400 and 1:800 on every plate to check for parallelism between the standard reference curve and the dilution curve of the positive control sera.
The diagnostic cutoff OD was adjusted to be 98% specific for an IgM assay on the basis of serum samples from 100 healthy danish blood donors, and was 0.230 for the IgM assay.
In a preliminary setup, rOspCt was used in the above-described rOspC ELISA. Sera from 47 patients with EM, 50 with NB, 30 with ACA and 29 with syphilis were tested against rOspCt.
The capability of an immunological agent according to the present invention to react with sera from patients in various stages of Lyme borreliosis was evaluated against that of recombinant OspC derived from B. garinii and against conventional flagellum ELISAs (performed as described in Hansen K. et al. (1991) and Hansen K. et al. (1988)). These flagellum assays (testing for IgM and IgG antibodies to native B. burgdorferi flagellum) are commercially available, a μ-capture ELISA (DAKO, Denmark code K006), and an indirect IgG ELISA (DAKO, Denmark code K416). Both assays use flagella purified from strain DK1 belonging to the genospecies of B. afzelii. The ELISAs were performed according to the instructions of the manufacturer, and the results were expressed as optical density (OD) values. In both assays the diagnostic cut-off level was adjusted to a specificity of 98% based on the examination of 100 blood donors.

NH2-PVVAESPKKP-CONH2 (H-PVVAESPKKP-NH2) [SEQ ID NO: 33]
ability to inhibit binding between rOspCfl and the 5 antisera [1]: incapable of inhibiting binding

NH2-PVVAESPKNP-COOH (H-PVVAESPKNP-OH) [SEQ ID NO: 38]
inhibition ([1]; Serum 1): 50% inhibition
inhibition ([1]; Serum 2): 0% inhibition
inhibition ([1]; Serum 3): 0% inhibition
inhibition ([1]; Serum 4): 0% inhibition
inhibition ([1]; Serum 5): 0% inhibition

NH2-PPPPESPKKP-COOH (H-PPPPESPKKP-OH) [SEQ ID NO: 39]
inhibition ([1]; Serum 1): 70% inhibition
inhibition ([1]; Serum 2): 100% inhibition
inhibition ([1]; Serum 3): 100% inhibition
inhibition ([1]; Serum 4): 0% inhibition
inhibition ([1]; Serum 5): 40% inhibition

NH2-PVVAESPKKA-COOH (H-PVVAESPKKA-OH) [SEQ ID NO: 23]
number of sera in which binding to rOspCfl was inhibited [1]: 0 sera

NH2-PVAAESPKKP-COOH (H-PVAAESPKKP-OH) [SEQ ID NO: 30]
ability to inhibit binding between rOspCfl and the 5 antisera [1]: capable of inhibiting binding

NH2-PAVAESPKKP-COOH (H-PAVAESPKKP-OH) [SEQ ID NO: 31]
ability to inhibit binding between rOspCfl and the 5 antisera [1]: capable of inhibiting binding

NH2-PVVPESPKKP-COOH (H-PVVPESPKKP-OH) [SEQ ID NO: 37]
inhibition ([1]; Serum 1): 70% inhibition
inhibition ([1]; Serum 2): 100% inhibition
inhibition ([1]; Serum 3): 100% inhibition
inhibition ([1]; Serum 4): 0% inhibition
inhibition ([1]; Serum 5): 40% inhibition

NH2-PVVAASPKKP-COOH (H-PVVAASPKKP-OH) [SEQ ID NO: 28]
ability to inhibit binding between rOspCfl and the 5 antisera [1]: capable of inhibiting binding

NH2-PVVFESPKKP-COOH (H-PVVFESPKKP-OH) [SEQ ID NO: 29]
ability to inhibit binding between rOspCfl and the 5 antisera [1]: capable of inhibiting binding

NH2-PVVAESAKKP-COOH (H-PVVAESAKKP-OH) [SEQ ID NO: 26]
number of sera in which binding to rOspCfl was inhibited [1]: 1 sera

NH2-PVVAESPAKP-COOH (H-PVVAESPAKP-OH) [SEQ ID NO: 25]
number of sera in which binding to rOspCfl was inhibited [1]: 3 sera

NH2-PKKP-COOH (H-PKKP-OH) [SEQ ID NO: 22]
patient sera in which binding between rOspCfl and antibodies was inhibited ([1]; six NB sera with OD>1.5 in the IgM rOspC ELISA): one single serum

9-arg: variant of SEQ ID NO: 1 in which 9-lys was substituted with 9-arg (PVVAESPKRP; FRAGMENT TYPE C-terminal; STRAIN DK6, INDIVIDUAL ISOLATE BN1068; listed as Borrelia garinii)
ability to inhibit binding between rOspCfl and the 5 antisera [1]: no effect

NH2-AVVAESPKKP-COOH (H-AVVAESPKKP-OH) [SEQ ID NO: 32]
ability to inhibit binding between rOspCfl and the 5 antisera [1]: capable of inhibiting binding

NH2-PVVAES*KKP-COOH (H-PVVAES[Thz]KKP-OH; SMILES CC(C)[C@H](NC(=O)[C@@H]1CCCN1)C(=O)N[C@H](C(=O)N[C@@H](C)C(=O)N[C@@H](CCC(=O)O)C(=O)N[C@@H](CO)C(=O)N1CSC[C@H]1C(=O)N[C@@H](CCCCN)C(=O)N[C@@H](CCCCN)C(=O)N1CCC[C@H]1C(=O)O)C(C)C) [* designates L-thiazolidine-4-carboxylic acid]
number of sera in which binding to rOspCfl was inhibited [1]: 5 sera

NH2-PVVAEAPKKP-COOH (H-PVVAEAPKKP-OH) [SEQ ID NO: 27]
ability to inhibit binding between rOspCfl and the 5 antisera [1]: capable of inhibiting binding

NH2-PVVAESPKAP-COOH (H-PVVAESPKAP-OH) [SEQ ID NO: 24]
number of sera in which binding to rOspCfl was inhibited [1]: 1 sera

B1: rOspCfl from B. burgdorferi sensu stricto: full-length recombinant OspC from strain DK7 of Borrelia burgdorferi sensu stricto (SEQ ID NO: 5) (protein)
chain: MKKNTLSAILMTLFLFISCNNSGKDGNTSANSADESVKGPNLTEISKKITDSNAVLLAVKEVEALLSSIDELAKAIGKKIKNDGSLGDEANHNESLLAGAYTISTLITQKLSKLNGSEGLKEKIAAAKKCSEEFSTKLKDNHAQLGIQGVTDENAKKAILKANAAGKDKGVEELEKLSGSLESLSKAAKEMLANSVKELTSPVVVESPKKP
modifications: Borrelia burgdorferi sensu stricto
immunoassay results compared with rOspCfl from B. garinii [2]: almost identical picture

B2: rOspCt: recombinant B. garinii OspC truncate which lacks the 7 carboxyterminal amino acids (protein)
chain: CNNSGGDSASTNPDESAKGPNLTVISKKITDSNAFLLAVKEVEALLSSIDELSKAIGKKIKNDGTLDNEANRNESLIAGAYEISKLITQKLSVLNSEELKEKIKEAKDCSEKFTTKLKDSHAELGIQSVQDDNAKKAILKTHGTKDKGAKELEELFKSLESLSKAAQAALTNSVKELTNPVVAESPKKP
modifications: left off: small tags and cut ends
notes: recombinant B. garinii OspC truncate which lacks the 7 carboxyterminal amino acids
Positive rOspCt ELISA results ([2]; ACA sera (N = 30), IgM, B. garinii rOspCt): n = 0 (0.00%)
Positive rOspCt ELISA results ([2]; EM and NB sera (n = 97), IgM, B. garinii rOspCt): n = 4 (4.12%)
Positive rOspCt ELISA results ([2]; EM sera (n = 47), serum panel 1, IgM, B. garinii rOspCt, 98% specific cutoff): n = 1 (2.12%)
Positive rOspCt ELISA results ([2]; NB sera (n = 50), serum panel 1, IgM, B. garinii rOspCt): n = 3 (6.00%)
Positive rOspCt ELISA results ([2]; Syphilis control sera (n = 29), IgM, B. garinii rOspCt): n = 5 (17.24%)

B3: rOspCfl from B. afzelii: full-length recombinant OspC from strain DK26 of Borrelia afzelii (SEQ ID NO: 7) (protein, listed as Borrelia afzelii)
chain: MKKNTLSAILMTLFLFISCNNSGKGGDSASTNPADESAKGPNLTEISKKITDSNAFVLAVKEVETLVLSIDELAKKAIGQKIDNNNGLAALNNQNGSLLAGAYAISTLITEKLSKLKNLEELKTEIAKAKKCSEEFTNKLKSGHADLGKQDATDDHAKAAILKTHATTDKGAKEFKDLFESVEGLLKAAQVALTNSVKELTSPVVAESPKKP
immunoassay results compared with rOspCfl from B. garinii [2]: almost identical picture

B4: B. afzelii derived rOspCt: recombinant B. afzelii DK26 OspC truncate lacking the seven C-terminal amino acids (protein)
chain: CNNSGKGGDSASTNPADESAKGPNLTEISKKITDSNAFVLAVKEVETLVLSIDELAKKAIGQKIDNNNGLAALNNQNGSLLAGAYAISTLITEKLSKLKNLEELKTEIAKAKKCSEEFTNKLKSGHADLGKQDATDDHAKAAILKTHATTDKGAKEFKDLFESVEGLLKAAQVALTNSVKELTSPVV
modifications: left off: small tags and cut ends
notes: recombinant B. afzelii DK26 OspC truncate lacking the seven C-terminal amino acids
Positive rOspCt ELISA results ([2]; serum panel 1, IgM): no positives
